Source: US8835124B2, “Method for treating cancer with agents that bind phosphorylated CDC27” (The Nemours Foundation, priority 2011, dated 2014)

Tests used:
[1] = system: DAOY medulloblastoma cells; experiment: Cell cycle analysis by flow cytometry after release from thymidine/nocodazole mitotic block; type: cell-based, human; conditions: for cells remained in G2/M: 10 μM curcumin; for G0/G1 / G2/M / S / Sub G0/G1: DAOY released from thymidine/nocodazole block
Method: DNA was stained with 100 μg/ml propidium iodide (PI) in hypotonic citrate buffer with 20 μg/ml ribonuclease A. Stained nuclei were analyzed for DNA-PI fluorescence using an Accuri C6 flow cytometer (Accuri Cytometers Inc., Ann Arbor, Mich.). Resulting DNA distributions for sub G0/G1, G0/G1, S and G2/M phase of the cell cycle were analyzed with CFlow plus software (Accuri Cytometers Inc).
(§1) For analysis of cell cycle profiles after mitotic block, cells were synchronized with 2 mM thymidine for 24 hours. The block was released for 3 hours and cells were arrested in prometaphase with 100 nM nocodazole for 12 hours. For G1/S arrest, cells were synchronized for 18 hours with 2 mM thymidine, released for 9 hours, followed by a second thymidine arrest for 18 hours. The block was then released in the presence of DMSO or curcumin as indicated and the cells were processed as described above.
as §1, with “above. […] The data from these cell cycle studies are the mean±SEM of three independent experiments. […]” for “above.”

[2] = system: APC2, p55Cdc20, cyclins A and E, APC7, APC8; experiment: Immunoblotting of APC/C subunits and other cell cycle related proteins in DAOY cells; type: cell-based, human; conditions: control vs curcumin-treated DAOY cells, immunoblot
Method: Cell lysates were prepared in a buffer containing 20 mM Tris (pH 7.5), 150 mM NaCl, 1 mM EDTA, 1 mM EGTA, 0.1% Triton X-100, 2.5 mM sodium pyrophosphate, 1 mM β-glycerol phosphate, 1 mM sodium vanadate, 1 mM phenylmethylsulfonyl fluoride and 5 μg/ml of antipapain, leupeptin and pepstatin (protease inhibitor cocktail). Protein concentrations were determined by the Dc protein assay (Bio-Rad, Hercules, Calif.). Equal amounts of protein were resolved by SDS-PAGE and transferred to nitrocellulose. The membranes were blocked in 5% non-fat milk in Tris-buffered saline with 0.1% […] (TBST). Primary antibodies diluted in 5% bovine serum albumin/TBST were incubated overnight at 4° C. and HRP-conjugated secondary antibodies in 5% non-fat milk/TBST for 2 hours at room temperature. Protein bands were visualized by Enhanced Chemiluminescence Plus (GE Healthcare, Piscataway, N.J.).
Cell lysates were prepared in a buffer containing 20 mM Iris (pH 7.5), 150 mM NaCl, 1 mM EDTA, 1 mM EGTA, 0.1% Triton X-100, 2.5 mM sodium pyrophosphate, 1 mM β-glycerol phosphate, 1 mM sodium vanadate, 1 mM phenylmethylsulfonyl fluoride and 5 μg/ml of antipapain, leupeptin and pepstatin (protease inhibitor cocktail). Protein concentrations were determined by the Dc protein assay (Bio-Rad, Hercules, Calif.). Equal amounts of protein were resolved by SDS-PAGE and transferred to nitrocellulose. […]

[3] = target: T1, Cdc27 (Mus musculus, UniProt A2A6Q5); experiment: Cdc27 immunoblot of medulloblastoma samples from treated Smo/Smo mice; type: in vivo; conditions: curcumin-treated vs corn oil control mice
T1 construct: from tissue; host or cells: medulloblastoma tumours of Smo/Smo mice
T1 sequence (A2A6Q5 whole entry): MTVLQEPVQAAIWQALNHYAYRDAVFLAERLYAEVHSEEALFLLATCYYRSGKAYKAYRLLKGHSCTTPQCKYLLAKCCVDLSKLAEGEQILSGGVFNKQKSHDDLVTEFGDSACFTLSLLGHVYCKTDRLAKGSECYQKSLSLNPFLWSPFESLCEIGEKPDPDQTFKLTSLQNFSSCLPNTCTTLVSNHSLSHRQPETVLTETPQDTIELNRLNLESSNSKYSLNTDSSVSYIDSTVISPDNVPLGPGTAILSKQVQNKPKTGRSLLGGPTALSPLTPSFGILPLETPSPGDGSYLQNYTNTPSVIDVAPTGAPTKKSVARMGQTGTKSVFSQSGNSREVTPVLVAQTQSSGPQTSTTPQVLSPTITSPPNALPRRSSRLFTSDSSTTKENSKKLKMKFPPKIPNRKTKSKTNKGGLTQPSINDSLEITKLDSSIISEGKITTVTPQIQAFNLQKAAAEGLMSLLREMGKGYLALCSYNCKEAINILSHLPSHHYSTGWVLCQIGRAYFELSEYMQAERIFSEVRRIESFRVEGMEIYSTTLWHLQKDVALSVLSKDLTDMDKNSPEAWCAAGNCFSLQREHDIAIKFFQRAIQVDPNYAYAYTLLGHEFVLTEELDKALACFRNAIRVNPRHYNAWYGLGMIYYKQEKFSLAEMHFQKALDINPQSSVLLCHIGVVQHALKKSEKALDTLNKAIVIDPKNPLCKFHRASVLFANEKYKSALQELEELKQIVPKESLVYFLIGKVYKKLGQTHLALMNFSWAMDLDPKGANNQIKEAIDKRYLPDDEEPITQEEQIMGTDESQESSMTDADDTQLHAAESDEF
Method: Tumors of control and curcumin-treated mice were harvested exactly as described (Lee et al., 2011, BMC Cancer 11:144). Animal experiments were performed according to the NIH Guide for the Care and Use of Experimental Animals and approved by our Institutional Animal Care and Use Committee.
Cdc27 levels in the Smo/Smo mouse tumors were determined by immunoblot of Cdc27. Tubulin is shown for equal loading. The Cdc27 levels were reduced (FIG. 4) when compared with control mice.

[4] = system: MDCK cells; experiment: LDH release cytotoxicity assay; type: cell-based; conditions: 24 hours, 0, 5, 10 and 20 μM; low phosphorylated Cdc27
Method: (§2) Lactate dehydrogenase (LDH) levels as a measure of cell death were determined using the Non-radioactive Cytotoxicity kit (Promega, Madison, Wis.) according to manufacturer's instructions. […] Cell debris was removed by centrifugation. Viable cell LDH was collected from cells lysed by freezing for 15 minutes at −70° C. followed by thawing at 37° C. The medium was collected and cleared from cell debris by centrifugation. The relative release of LDH was determined as the ratio of released LDH versus total LDH from viable cells.

[5] = system: HT1376 cells; experiment: LDH release cytotoxicity assay; type: cell-based; conditions: 24 hours, 0, 5, 10 and 20 μM; low phosphorylated Cdc27
Method: as §2

[6] = system: NT2 and MDCK cells; experiment: Cell cycle progression after release from thymidine/nocodazole block; type: cell-based; conditions: different concentrations of curcumin
Method: as §1
NT2 and MDCK cells were arrested with thymidine/nocodazole treatment. […] DNA contents were analyzed for cell cycle progression. The data shown in FIG. 7 are expressed as mean±SEM of three independent experiments.

For `COc1cc(/C=C/C(=O)CC(=O)/C=C/c2ccc(O)c(OC)c2)ccc1O` [Curcumin, (E,E)-1,7-bis(4-hydroxy-3-methoxyphenyl)-1,6-heptadiene-3,5-dion], the “cells remained in G2/M” value ([1]; six hours after release from mitotic block) was 47.7%, the “cells remained in G2/M” value ([1]; two hours after release from mitotic block) was 91.5% and the “cells found in G2/M” value ([1]; 20 μM curcumin, 10 hours of release from mitotic block) was 69.8%. The “cells in the sub-G0/G1 fraction” value ([1]; 20 μM curcumin, after release from mitotic block) was “a significant amount of cells was in the sub-G0/G1 fraction”, the G0/G1 ([1]; 10 μM Curcumin, 0 Hr) was 7.38 ± 3.12% and the G2/M ([1]; 10 μM Curcumin, 0 Hr) was 70.15 ± 0.75%. The S ([1]; 10 μM Curcumin, 0 Hr) was 17.68 ± 4.78%, the “Sub G0/G1” value ([1]; 10 μM Curcumin, 0 Hr) was 4.80 ± 2.40% and the G0/G1 ([1]; 10 μM Curcumin, 2 Hr) was 16.87 ± 4.87%. For the same compound, the G2/M ([1]; 10 μM Curcumin, 2 Hr) was 64.16 ± 7.74%, the S ([1]; 10 μM Curcumin, 2 Hr) was 10.76 ± 0.04% and the “Sub G0/G1” value ([1]; 10 μM Curcumin, 2 Hr) was 8.21 ± 2.91%. For the same compound, the G0/G1 ([1]; 10 μM Curcumin, 4 Hr) was 35.54 ± 1.94%, the G2/M ([1]; 10 μM Curcumin, 4 Hr) was 46.47 ± 0.17% and the S ([1]; 10 μM Curcumin, 4 Hr) was 9.47 ± 2.03%. For the same compound, the “Sub G0/G1” value ([1]; 10 μM Curcumin, 4 Hr) was 8.57 ± 0.13%, the G0/G1 ([1]; 10 μM Curcumin, 6 Hr) was 43.93 ± 3.13% and the G2/M ([1]; 10 μM Curcumin, 6 Hr) was 33.43 ± 5.27%. For the same compound, the S ([1]; 10 μM Curcumin, 6 Hr) was 12.07 ± 0.53%, the “Sub G0/G1” value ([1]; 10 μM Curcumin, 6 Hr) was 10.57 ± 2.67% and the G0/G1 ([1]; 10 μM Curcumin, 8 Hr) was 47.60 ± 4.00%. The G2/M ([1]; 10 μM Curcumin, 8 Hr) was 26.86 ± 6.24%, the S ([1]; 10 μM Curcumin, 8 Hr) was 15.54 ± 0.56% and the “Sub G0/G1” value ([1]; 10 μM Curcumin, 8 Hr) was 9.99 ± 2.79%. It also gave a G0/G1 ([1]; 10 μM Curcumin, 10 Hr) of 48.68 ± 8.18%, a G2/M ([1]; 10 μM Curcumin, 10 Hr) of 22.65 ± 11.35% and an S ([1]; 10 μM Curcumin, 10 Hr) of 19.88 ± 0.32%. The “Sub G0/G1” value ([1]; 10 μM Curcumin, 10 Hr) was 8.85 ± 3.45%, the G0/G1 ([1]; 20 μM Curcumin, 0 Hr) was 7.38 ± 3.12% and the G2/M ([1]; 20 μM Curcumin, 0 Hr) was 70.15 ± 0.75%. The S ([1]; 20 μM Curcumin, 0 Hr) was 17.68 ± 4.76%, the “Sub G0/G1” value ([1]; 20 μM Curcumin, 0 Hr) was 4.80 ± 2.40% and the G0/G1 ([1]; 20 μM Curcumin, 2 Hr) was 11.51 ± 2.81%. The G2/M ([1]; 20 μM Curcumin, 2 Hr) was 67.21 ± 5.39%, the S ([1]; 20 μM Curcumin, 2 Hr) was 13.86 ± 0.34% and the “Sub G0/G1” value ([1]; 20 μM Curcumin, 2 Hr) was 7.42 ± 2.92%. It also gave a G0/G1 ([1]; 20 μM Curcumin, 4 Hr) of 16.77 ± 1.63%, a G2/M ([1]; 20 μM Curcumin, 4 Hr) of 65.00 ± 1.30% and an S ([1]; 20 μM Curcumin, 4 Hr) of 10.77 ± 1.57%. The “Sub G0/G1” value ([1]; 20 μM Curcumin, 4 Hr) was 7.46 ± 1.36%, the G0/G1 ([1]; 20 μM Curcumin, 6 Hr) was 22.09 ± 0.81% and the G2/M ([1]; 20 μM Curcumin, 6 Hr) was 52.27 ± 5.63%. For the same compound, the S ([1]; 20 μM Curcumin, 6 Hr) was 14.02 ± 2.02%, the “Sub G0/G1” value ([1]; 20 μM Curcumin, 6 Hr) was 11.67 ± 4.37% and the G0/G1 ([1]; 20 μM Curcumin, 8 Hr) was 24.20 ± 0.30%. For the same compound, the G2/M ([1]; 20 μM Curcumin, 8 Hr) was 51.55 ± 9.55%, the S ([1]; 20 μM Curcumin, 8 Hr) was 13.45 ± 3.65% and the “Sub G0/G1” value ([1]; 20 μM Curcumin, 8 Hr) was 10.85 ± 5.55%. For the same compound, the G0/G1 ([1]; 20 μM Curcumin, 10 Hr) was 25.15 ± 0.85%, the G2/M ([1]; 20 μM Curcumin, 10 Hr) was 48.95 ± 10.95% and the S ([1]; 20 μM Curcumin, 10 Hr) was 14.22 ± 4.02%. The “Sub G0/G1” value ([1]; 20 μM Curcumin, 10 Hr) was 11.67 ± 6.07%, the “expression of cyclin A and E” value [2] was “No noticeable changes” and the “levels of APC2 and p55Cdc20” value [2] was “comparable in control and curcumin-treated cells”. The “Cdc27 levels in Smo/Smo mouse tumors” value [3] was “reduced”, the “sensitivity to curcumin-induced apoptosis (LDH release)” value [4] was “almost unaffected” and the “sensitivity to curcumin-induced apoptosis (LDH release)” value [5] was “almost unaffected”. The “mitotic progression after release from mitotic block” value [6] was “selectively blocks mitotic progression in different cell lines with phosphorylated APC3/Cdc27”.
